Key:
[1] = Organ weights after subcutaneous administration in CD-1 mice (Example 6); assay type: in vivo; conditions: end of study, 50 mg/kg subcutaneously twice a week for 7 weeks
Protocol: Groups of 8-9 week old male CD-1 mice were injected subcutaneously twice a week for 7 weeks with 50 mg/kg of Ionis oligonucleotides (100 mg/kg/week dose). Each group contained 4 mice. One group of male CD-1 mice was injected subcutaneously twice a week for 7 weeks with PBS. Plasma was collected for analysis on day 28.
Ionis SMAD7 oligonucleotides that caused any changes in organ weights outside the expected range for antisense oligonucleotides were excluded from further studies.

human SMAD7 mRNA [2] = assay: Dose-dependent inhibition of human SMAD7 mRNA expression in A431 cells, oligonucleotide added without transfection (Example 5, Study 1); assay type: cell-based; conditions: approximately 48 hours; for IC50: SMAD7 mRNA
Summary of the method: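 A431 cells dosed with antisense oligonucleotide at 0.08–20.00 μM by free uptake immediately after plating, 48 h at 37° C. SMAD7 mRNA quantified by qRT-PCR (primer probe set RTS5062), normalised to RiboGreen total RNA. Values are % inhibition versus untreated cells.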

[3] = Organ weights after oral gavage in beagle dogs (Example 12); conditions: 200 mg oral gavage for 4 weeks, day 30
Protocol: (§1) Groups of 24-25 week old male beagle dogs were administered 200 mg Ionis human SMAD7 oligonucleotide by oral gavage once a week for 4 weeks. There were 4 animals per group. A control group of dogs received oral administration of distilled water. Dogs were sacrificed on day 30 approximately 48 hours after the final dose and organs and plasma were harvested for further analysis.

murine Smad7 mRNA = assay: Dose-dependent inhibition of murine Smad7 mRNA in bEND cells, electroporation (Example 5, Study 2); assay type: cell-based, mouse; conditions: electroporation; for % inhibition of SMAD7 mRNA expression: approximately 16 hours
Summary of the method: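 Mouse bEND cells electroporated with oligonucleotide at several doses and treated for approximately 16 hours. Smad7 mRNA quantified by real-time RT-PCR (primer probe set RTS1114), normalised to total RNA by RiboGreen. Reported as percent inhibition relative to untreated cells.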

[4] = Plasma chemistry markers after subcutaneous administration in CD-1 mice (Example 6); assay type: in vivo; conditions: CD-1 mice plasma at day 46; 50 mg/kg subcutaneously twice a week for 7 weeks
Protocol: CD-1® mice (Charles River, Mass.) are a multipurpose mice model, frequently utilized for safety and efficacy testing. The mice were treated with Ionis human SMAD7 antisense oligonucleotides selected from studies described above and evaluated.
Groups of 8-9 week old male CD-1 mice were injected subcutaneously twice a week for 7 weeks with 50 mg/kg of Ionis oligonucleotides (100 mg/kg/week dose). Each group contained 4 mice. One group of male CD-1 mice was injected subcutaneously twice a week for 7 weeks with PBS. […]

human SMAD7 mRNA [5] = assay: Dose-dependent inhibition of human SMAD7 mRNA expression in Hep3B cells (Example 3, Study 1 and 2); assay type: cell-based; conditions: electroporation; for % inhibition of SMAD7 mRNA expression: approximately 16 hours; for IC50: Study 2 (740-20000 nM)
Summary of the method: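 Hep3B cells, 20,000 per well, electroporated with antisense oligonucleotide at 0.31, 1.25, 5.00 or 20.00 μM (first series) or 0.74, 2.22, 6.67 or 20.00 μM (second series). After ~16 h, SMAD7 mRNA measured by RT-qPCR (RTS5062), normalised to RIBOGREEN total RNA. Percent inhibition vs untreated cells; IC50 derived.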

[6] = Plasma chemistry markers after oral gavage in beagle dogs (Example 12); conditions: 200 mg oral gavage for 4 weeks, plasma at day 30
Protocol: The study was conducted to evaluate the tolerability and pharmacodynamics of select human SMAD7 antisense oligonucleotides in beagle dogs following 4 weeks of treatment. The dogs were administered oligonucleotides by oral gavage.
as §1
To evaluate the effect of Ionis SMAD7 oligonucleotides on liver and kidney function, approximately 1.5 mL of blood samples were collected and put into tubes without anticoagulant for serum separation. The tubes were kept at room temperature for a minimum of 90 min and then centrifuged (approximately 3,000 rpm for 10 min) to obtain serum. Plasma levels of transaminases, albumin, bilirubin, and BUN were measured using an automated clinical chemistry analyzer (Toshiba 200FR Neo chemistry analyzer, Toshiba Co., Japan).

[7] = Pharmacokinetics: oligonucleotide concentration in the plasma on day 28 after oral gavage in beagle dogs (Example 12); assay type: in vivo; conditions: 200 mg oral gavage
Protocol: There were 4 animals per group.
Plasma concentrations of Ionis oligonucleotides were also measured on Day 28 at various time points.

[8] = 740 nM, Study 2, relative to untreated control cells

Row | Substance | Organ weights, Kidneys [1] [g] | Organ weights, Liver [1] [g] | Organ weights, Spleen [1] [g] | % inhibition of SMAD7 mRNA expression (human SMAD7 mRNA [2]; 0.08 μM) [%] | % inhibition of SMAD7 mRNA expression (human SMAD7 mRNA [2]; 0.25 μM) [%] | % inhibition of SMAD7 mRNA expression (human SMAD7 mRNA [2]; 0.74 μM) [%] | % inhibition of SMAD7 mRNA expression (human SMAD7 mRNA [2]; 2.22 μM) [%] | % inhibition of SMAD7 mRNA expression (human SMAD7 mRNA [2]; 6.67 μM) [%] | % inhibition of SMAD7 mRNA expression (human SMAD7 mRNA [2]; 20.00 μM) [%] | IC50 (human SMAD7 mRNA [2]) [µM] | Kidney weight (% of control) [3] | Liver weight (% of control) [3] | Spleen weight (% of control) [3] | % inhibition of SMAD7 mRNA expression (murine Smad7 mRNA; 0.25 μM) [%] | % inhibition of SMAD7 mRNA expression (murine Smad7 mRNA; 0.74 μM) [%] | % inhibition of SMAD7 mRNA expression (murine Smad7 mRNA; 2.22 μM) [%] | % inhibition of SMAD7 mRNA expression (murine Smad7 mRNA; 6.67 μM) [%] | % inhibition of SMAD7 mRNA expression (murine Smad7 mRNA; 20.00 μM) [%] | IC50 (murine Smad7 mRNA) [µM] | ALT [4] [IU/L] | also measured
1 | 798781 (CGTAAGATTCACAGCA; 3-10-3 cEt gapmer, further chemistry not given here) [compound 798781] | 0.6 | 2.3 | 0.1 | 23 | 34 | 41 | 41 | 57 | 62 | 3.6 | 86 % of control | 91 % of control | 102 % of control | 0 | 0 | 20 | 33 | 51 | 19.8 | 40 | AST [4]: 66 IU/L; Albumin [4]: 2.2 g/dL; BUN [4]: 26 mg/dL; % inhibition of SMAD7 mRNA expression (human SMAD7 mRNA [5]; [8]): 46%; % inhibition of SMAD7 mRNA expression (human SMAD7 mRNA [5]; 2220 nM, Study 2): 64%; % inhibition of SMAD7 mRNA expression (human SMAD7 mRNA [5]; 6670.0 nM, Study 2): 81%; % inhibition of SMAD7 mRNA expression (human SMAD7 mRNA [5]; 20000.0 nM, Study 2): 87%; IC50 (human SMAD7 mRNA [5]): 2 µM; ALT (% of control) [6]: 115 % of control; AST (% of control) [6]: 114 % of control; Albumin (% of control) [6]: 101 % of control; BUN (% of control) [6]: 104 % of control; Bilirubin (% of control) [6]: 114 % of control; Oligonucleotide concentration in the plasma on day 28 ([7]; 2 hr): 18.7 ng/mL; Oligonucleotide concentration in the plasma on day 28 ([7]; 4 hr): 5.4 ng/mL; Oligonucleotide concentration in the plasma on day 28 ([7]; 8 hr): 3.6 ng/mL; Oligonucleotide concentration in the plasma on day 28 ([7]; 24 hr): 0.4 ng/mL
2 | 830025 (antisense TTTGTAAATCGAAAGC; 3-10-3 cEt gapmer, further chemistry not given here) [compound 830025] | 0.6 | 2.2 | 0.2 | 16 | 30 | 22 | 41 | 54 | 67 | 4.7 | 99 % of control | 79 % of control | 87 % of control | 15 | 27 | 51 | 67 | 77 | 2.7 | 208 | AST [4]: 263 IU/L; Albumin [4]: 2.5 g/dL; BUN [4]: 25 mg/dL; % inhibition of SMAD7 mRNA expression (human SMAD7 mRNA [5]; [8]): 42%; % inhibition of SMAD7 mRNA expression (human SMAD7 mRNA [5]; 2220 nM, Study 2): 58%; % inhibition of SMAD7 mRNA expression (human SMAD7 mRNA [5]; 6670.0 nM, Study 2): 72%; % inhibition of SMAD7 mRNA expression (human SMAD7 mRNA [5]; 20000.0 nM, Study 2): 88%; IC50 (human SMAD7 mRNA [5]): < 0.7 µM; ALT (% of control) [6]: 117 % of control; AST (% of control) [6]: 106 % of control; Albumin (% of control) [6]: 96 % of control; BUN (% of control) [6]: 93 % of control; Bilirubin (% of control) [6]: 96 % of control; Oligonucleotide concentration in the plasma on day 28 ([7]; 2 hr): 13.6 ng/mL; Oligonucleotide concentration in the plasma on day 28 ([7]; 4 hr): 3.8 ng/mL; Oligonucleotide concentration in the plasma on day 28 ([7]; 8 hr): 1.7 ng/mL; Oligonucleotide concentration in the plasma on day 28 ([7]; 24 hr): 0.0 ng/mL
3 | 790615 (CCAATGAGAATGCTTC; 3-10-3 cEt gapmer, further chemistry not given here) [compound 790615] | 0.6 | 2.0 | 0.2 | 14 | 43 | 55 | 63 | 70 | 75 | 0.7 | 94 % of control | 85 % of control | 106 % of control | 7 | 18 | 37 | 47 | 64 | 7.3 | 65 | AST [4]: 97 IU/L; Albumin [4]: 2.2 g/dL; BUN [4]: 22 mg/dL; ALT (% of control) [6]: 118 % of control; AST (% of control) [6]: 147 % of control; Albumin (% of control) [6]: 98 % of control; BUN (% of control) [6]: 108 % of control; Bilirubin (% of control) [6]: 102 % of control; Oligonucleotide concentration in the plasma on day 28 ([7]; 2 hr): 16.7 ng/mL; Oligonucleotide concentration in the plasma on day 28 ([7]; 4 hr): 4.8 ng/mL; Oligonucleotide concentration in the plasma on day 28 ([7]; 8 hr): 0.5 ng/mL; Oligonucleotide concentration in the plasma on day 28 ([7]; 24 hr): 0.0 ng/mL
